Laboratory results reported in PubChem BioAssay (NCI).
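A five-concentration, 48-hour dose response in 96-well plates underlies each endpoint, interpolated linearly between surrounding concentrations. GI50: concentration for 50% inhibition of growth. TGI: total growth inhibition.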

Legend:
Test in all cases: DTP human tumour cell line panel, 48 h
[1] = system: HCC-2998 colon
[2] = system: CCRF-CEM leukemia
[3] = system: SK-MEL-2 melanoma
[4] = system: A549 NSCLC
[5] = system: ACHN renal
[6] = system: NCI-H522 lung
[7] = system: A498 renal
[8] = system: M14 melanoma
[9] = system: T-47D breast

Work on O=C(O)CN(CC(=O)O)C(C(=O)O)c1ccccc1 (configuration not stated) yielded a TGI [1] of over 100 µM, a TGI [2] of over 100 µM and a TGI [3] of over 100 µM. It also gave a TGI [4] of over 100 µM, a TGI [5] of over 100 µM and a TGI [6] of over 100 µM. It also gave a TGI [7] of over 100 µM, a TGI [8] of over 100 µM and a TGI [9] of over 100 µM.
With O=C1CS(=O)(=O)C(c2cccc(Oc3ccccc3)c2)N1c1cc(Cl)ccc1Cl (configuration not stated) the TGI [1] was 37.1 µM, the TGI [2] was over 100 µM and the TGI [3] was 30.2 µM. For the same compound, the TGI [4] was over 100 µM, the TGI [5] was 43.1 µM and the TGI [6] was 56 µM. It also gave a TGI [8] of 43.1 µM and a TGI [9] of 53.2 µM.
With CN(C)c1cccc2c1C(=O)C=CC21c2ccc(N(C)C)c3c(N(C)C)ccc(c23)C(c2ccccc2)C1c1ccccc1 (configuration not stated) the TGI [1] was 45.6 µM, the TGI [2] was 37.7 µM and the TGI [4] was 71.7 µM. It also gave a TGI [5] of 26.6 µM, a TGI [6] of 47.7 µM and a TGI [7] of 22 µM. It also gave a TGI [8] of 31.1 µM.
In the case of COC(=O)C1(O)C(c2ccccc2)=NC2(C)CCCC21 (configuration not stated), the TGI [1] is reported as over 100 µM, the TGI [2] is reported as over 100 µM and the TGI [3] is reported as over 100 µM. It also gave a TGI [4] of over 100 µM, a TGI [6] of over 100 µM and a TGI [7] of over 100 µM. The TGI [8] was over 100 µM and the TGI [9] was over 100 µM.
CC(=O)n1nc(-c2ccccc2)n(/N=C/c2ccc([N+](=O)[O-])o2)c1=O showed a TGI [1] of 19.1 µM, a TGI [2] of 6.55 µM and a TGI [3] of 11.5 µM. The TGI [4] was 25 µM, the TGI [5] was 19.1 µM and the TGI [6] was 7.15 µM. It also gave a TGI [7] of 45 µM, a TGI [8] of 4.08 µM and a TGI [9] of 44.5 µM.
Work on CC(=O)Oc1c(C)c(C)c2c(c1C)CCC(C)(CC(=O)OCCCCCCCCCCC[P+](c1ccccc1)(c1ccccc1)c1ccccc1)O2 (configuration not stated) yielded a GI50 [6] of 0.21 µM, a TGI [6] of 0.666 µM and a GI50 [7] of 0.385 µM. The TGI [7] was 2 µM, the GI50 [8] was 0.408 µM and the TGI [8] was 1.56 µM. For the same compound, the GI50 [9] was 0.0727 µM and the TGI [9] was 0.736 µM.
With CC1=NNC(=O)C1C1CC(c2c[nH]c3ccccc23)=NN=C1Cl (configuration not stated) the TGI [2] was 69.2 µM, the TGI [3] was over 100 µM and the TGI [4] was over 100 µM. It also gave a TGI [5] of over 100 µM, a TGI [6] of over 100 µM and a TGI [7] of over 100 µM. For the same compound, the TGI [8] was over 100 µM and the TGI [9] was over 100 µM.
Compound O=S1(=O)C[C@@H](NCc2ccccc2)[C@H](NCc2ccccc2)C1 has a TGI [1] of over 100 µM, a TGI [2] of over 100 µM and a TGI [3] of over 100 µM. For the same compound, the TGI [4] was over 100 µM, the TGI [5] was over 100 µM and the TGI [6] was over 100 µM. The TGI [8] was over 100 µM and the TGI [9] was over 100 µM.
Compound CN(C)c1ccc(Cc2cc3c(O)ccc(O)c3cc(Cc3ccc(N(C)C)cc3)c2=O)cc1 has a TGI [1] of 64 µM, a TGI [2] of 7.36 µM and a TGI [3] of over 68.9 µM. It also gave a TGI [4] of over 77.1 µM, a TGI [5] of 25.3 µM and a TGI [6] of 32.5 µM. For the same compound, the TGI [7] was over 75.5 µM, the TGI [8] was 34.2 µM and the TGI [9] was 26.8 µM.
With Cc1cc(C)nc(NS(=O)(=O)c2ccc(NC(=O)c3cccc4c(NNc5ccc(S(=O)(=O)N=C(N)N)cc5)c5ccccc5nc34)cc2)n1 the TGI [1] was over 50 µM, the TGI [2] was over 50 µM and the TGI [4] was over 50 µM. It also gave a TGI [5] of over 50 µM, a TGI [6] of over 50 µM and a TGI [7] of over 50 µM. The TGI [8] was over 50 µM and the TGI [9] was over 50 µM.
In the case of COc1ccc([C@H]2C=[N+]([O-])O[C@H](OC3CCCC3)[C@@H]2OC(C)=O)cc1OC, the TGI [1] is reported as 72.8 µM, the TGI [2] is reported as 20.1 µM and the TGI [3] is reported as over 100 µM. The TGI [4] was over 100 µM, the TGI [5] was 88.4 µM and the TGI [6] was 17.9 µM. For the same compound, the TGI [7] was over 100 µM, the TGI [8] was 44.4 µM and the TGI [9] was 53.2 µM.
CCOC(=O)C1CCC(=O)N1C(=O)c1ccccc1Cl (configuration not stated) was tested, and the TGI [1] was over 100 µM, the TGI [2] was over 100 µM and the TGI [4] was over 100 µM. The TGI [5] was over 100 µM, the TGI [6] was over 100 µM and the TGI [7] was over 100 µM. The TGI [8] was over 100 µM and the TGI [9] was over 100 µM.
COC1C(O)C(O[C@H]2CC[C@@]3(C)C(CC[C@@H]4[C@@H]3CC[C@]3(C)[C@@H](C(C)OC5OC(CO)C(O)C(O)C5O)CC[C@]43O)C2)OC(C)C1OC1OC(CO)C(O)C(O)C1O (some centres not stated) gave a TGI [1] of over 100 µM, a TGI [2] of over 100 µM and a TGI [3] of over 100 µM. It also gave a TGI [4] of over 100 µM, a TGI [5] of over 100 µM and a TGI [6] of over 100 µM. The TGI [7] was over 100 µM, the TGI [8] was over 100 µM and the TGI [9] was over 100 µM.
CCOC(=O)C1=CC(C)(C(=O)OCC)Nc2c(nc(N)[nH]c2=O)N1 (configuration not stated) gave a TGI [1] of over 10 µM, a TGI [2] of over 10 µM and a TGI [3] of over 10 µM. The TGI [4] was over 10 µM, the TGI [5] was over 10 µM and the TGI [6] was over 10 µM. It also gave a TGI [7] of over 10 µM, a TGI [8] of over 10 µM and a TGI [9] of over 10 µM.
Cc1cc(C)c(/C=C(\C(=C/c2c(C)cc(C)cc2C)[N+](=O)[O-])[N+](=O)[O-])c(C)c1 showed a TGI [1] of over 100 µM, a TGI [2] of over 100 µM and a TGI [3] of over 100 µM. The TGI [4] was over 100 µM, the TGI [5] was over 100 µM and the TGI [8] was over 100 µM. It also gave a TGI [9] of over 100 µM.
With C/C(=C\CO)CC/C=C(\C)CNc1ccc([N+](=O)[O-])cc1 the TGI [3] was 79.5 µM, the TGI [4] was over 100 µM and the TGI [5] was over 100 µM. The TGI [6] was 66.8 µM, the TGI [8] was over 100 µM and the TGI [9] was 80 µM.
CC1(C)CC(C#Cc2ccccc2)CC(C)(C)N1O showed a TGI [1] of 32.2 µM, a TGI [2] of over 100 µM and a TGI [3] of 43.6 µM. It also gave a TGI [4] of 75.5 µM, a TGI [5] of over 100 µM and a TGI [8] of 38.2 µM. It also gave a TGI [9] of 63.8 µM.
For COc1cccc2c1OCC1Cc3ccccc3OC21 (configuration not stated), the TGI [1] was over 100 µM, the TGI [2] was over 100 µM and the TGI [3] was over 100 µM. For the same compound, the TGI [4] was over 100 µM, the TGI [6] was over 100 µM and the TGI [7] was over 100 µM. The TGI [8] was over 100 µM and the TGI [9] was over 100 µM.
O=C1C2=Nc3ccccc3C(O)(C(=O)O)N2c2ccccc21 (configuration not stated) gave a TGI [1] of over 100 µM, a TGI [2] of 94.9 µM and a TGI [3] of 43.4 µM. It also gave a TGI [4] of 24.6 µM, a TGI [5] of over 100 µM and a TGI [6] of 50.2 µM. The TGI [7] was 80.9 µM.
In the case of COc1nc2c(N3CCCC3)nc(N3CCNCC3)nc2nc1NCc1ccccc1, the TGI [1] is reported as 2.79 µM, the TGI [2] is reported as 6.72 µM and the TGI [3] is reported as 3.11 µM. It also gave a TGI [4] of 5.34 µM, a TGI [5] of 7.01 µM and a TGI [6] of 2.54 µM. It also gave a TGI [8] of 3.03 µM and a TGI [9] of 3.19 µM.
For COc1cc(/C=C2\CCC(C)/C(=C\c3cc(OC)c(OC)c(OC)c3)C2=O)cc(OC)c1OC (configuration not stated), the TGI [2] was 4.1 µM, the TGI [3] was 3.37 µM and the TGI [4] was over 100 µM. It also gave a TGI [5] of 13.1 µM, a TGI [7] of 6.06 µM and a TGI [8] of 4.42 µM. For the same compound, the TGI [9] was over 100 µM.
With O=[N+]([O-])/C(Cl)=C(\NCCN/C(C(Cl)=C(Cl)Cl)=C(/Cl)[N+](=O)[O-])C(Cl)=C(Cl)Cl the TGI [1] was over 100 µM, the TGI [2] was over 100 µM and the TGI [4] was over 100 µM. It also gave a TGI [5] of over 100 µM, a TGI [7] of over 100 µM and a TGI [8] of over 100 µM. For the same compound, the TGI [9] was over 100 µM.
C[C@H]1OC(=O)[C@@H]2N=NN(Cc3ccccc3)[C@H]12 was tested, and the TGI [1] was over 100 µM, the TGI [3] was over 100 µM and the TGI [4] was over 100 µM. For the same compound, the TGI [5] was over 100 µM, the TGI [6] was over 100 µM and the TGI [7] was over 100 µM. For the same compound, the TGI [8] was over 100 µM and the TGI [9] was over 100 µM.
